In patent publication US11547300B2, “Methods of treating and imaging tumor micrometastases using photoactive immunoconjugates” (priority 2014, dated 2023):

How the values were obtained:
OVCAR5 cells = conditions: cited from earlier work
EOC (NIH:OVCAR5) tumors = conditions: mouse, in vivo
Description: Micrometastatic mouse model. An orthotopic xenograft mouse model of human ovarian carcinomatosis was established in our laboratory with gynecologic oncologists (30). Athymic Swiss female Nu/Nu mice (20-25 grams and 6-8 weeks old; Cox Breeding Laboratories) were injected intraperitoneally (i.p.) with 16×10^6 NIH:OVCAR5 (EOC) cells in 2 mL phosphate-buffered saline. All experiments were conducted according to Massachusetts General Hospital Institutional Animal Care and Use Committee (IACUC) guidelines.

| tumor-to-bowel ratio (EOC (NIH:OVCAR5) tumors) | tumor-to-bowel ratio from fitting the pharmacokinetic data to a model (EOC (NIH:OVCAR5) tumors) | Compound | resistance relative to a platinum sensitive cell line (OVCAR5 cells) [fold] |
| --- | --- | --- | --- |
|  |  | N.N.[Cl][Pt][Cl] [cisplatin] | 7 |
| 2.7 | 2.8 | verteporfin |  |
